Measurements from patent US20240181000A1, “LGG-DERIVED PEPTIDES AND METHODS OF USE THEREOF” (Ohio State Innovation Foundation, priority 2021, published 2024).
Where two headings read alike, the source gives them in different places. No end group written: not given here.

Experiments:
[1] = test system: APEC O78; format: cell-based, E. coli
Procedure: Anti-APEC activity determination: The anti-APEC activity of peptides was determined in LB broth following CLSI guidelines. Briefly, overnight grown APEC O78 was adjusted to 5×10^5 CFU/mL concentration in fresh LB media. One-hundred microliters of APEC suspension was aliquoted into the wells of the 96-well plate. Peptides were added to the wells at 6 mM and 12 mM concentrations and incubated at 37° C. in TECAN Sunrise™ absorbance microplate reader with kinetic absorbance measurement set at every 30 mins for 12 h. Sterile media and DMSO (solvent) were used as controls. The growth inhibitory activity of the peptides against APEC was calculated using the formula: (OD600 DMSO treated well−OD600 peptide treated well)/OD600 DMSO treated well×100%.
The minimum inhibitory concentration (MIC) was determined for selected peptides (P1, P2, P3, and P4) using similar assay as above. Peptides were added to the wells of the 96-well plate at 6 mM, 9 mM, 12 mM, 15 mM, and 18 mM concentrations. The peptide concentration at which there is no visible APEC growth (no OD increase) was determined as MIC. Two independent experiments were conducted.
Arginine and lysine substituted peptide analogues: The non-essential amino acid residues identified in each peptide were substituted with arginine/lysine to test whether these substitutions enhance the anti-APEC activity of peptides. The MICs of arginine and lysine substituted peptide analogues ([…] (SEQ ID NO:37), […] (SEQ ID NO:38), […] (SEQ ID NO:39), KDENK (SEQ ID NO:41), PDEKK (SEQ ID NO:42), KDEKK (SEQ ID NO:43), KHTAPK (SEQ ID NO:45), VKTAPK (SEQ ID NO:46), VHTKPK (SEQ ID NO:47), and KKTKPK (SEQ ID NO:48)) were determined as above and compared with original peptides.

[2] = test system: ST; format: in vivo, chickens; settings: for Reduction of percent of birds positive for ST in the liver: 50 mg/kg twice daily
Procedure: Efficacy of peptides in chickens: To assess the efficacy of peptides against ST in chickens, one-day-old specific pathogen free (SPF) layer chickens from a Salmonella free flock at The Ohio State University were obtained and provided with feed and water ad libitum. Chickens (n=10/group) were treated with P1, P2, or P4 at 50 mg/kg body weight twice-daily doses. Peptides were dissolved in water to reach final concentration of 50 mg/kg and orally administered from day 1 to day 7. Early intestinal colonization is important for poultry health and thus is why peptide treatment was begun at day 1. Birds were challenged with 10^4 CFU of nalidixic acid resistant ST on day 3. At day 10 [7 days post infection (dpi)] chickens were euthanized, and the cecum, liver, and spleen were collected to determine the peptide's ability to reduce ST infection. The cecum was suspended in PBS, homogenized, ten-fold serially diluted, and plated on XLT4 agar plates supplemented with 50 μg/ml nalidixic acid and incubated for 24 h at 37° C. The liver and spleen were individually suspended in PBS and the undiluted homogenized suspension was plated directly and incubated for 24 h at 37° C. One milliliter of the undiluted homogenized liver and spleen was enriched in 9 ml of tetrathionate broth (TTB) for 24 h at 37° C. After incubation they were plated as described above to enumerate ST in each tissue. The body weights of chickens were measured on the day of necropsy (day 10). An untreated positive control group (PC: infected but untreated) and a negative control group (NC: non infected and non-treated) were included in the study. A Mann-Whitney test was used to determine statistical significance (P<0.05) of treatment on ST load in cecum and on body weight.

[3] = test system: Biofilm embedded ST; test: MBEC Assay; format: cell-based, Salmonella enterica; settings: at MICs; untreated 6.46 ± 0.09
Procedure: (§1) Peptides effect against biofilm embedded Salmonella: To analyze the ability of the peptides (P1, P2, and P4) to retain their inhibitory characteristics against biofilm protected Salmonella, Innovotech's MBEC Assay® (Innovotech Inc., AB, Canada) was conducted as previously detailed. Initially, 150 μL of 5×10^7 CFU/mL adjusted ST or SE suspension in LB media was aliquoted into the wells of MBEC inoculator plates containing polystyrene pegs and incubated for 36 h on a rocker platform at 37° C. to allow the biofilm formation. After biofilm formation, the pegs were washed to remove loosely adherent planktonic bacteria and transferred to a new 96-well plate containing peptides at MICs, with relevant controls, in 200 μL 25% LB media. The diluted LB media was used because it allows for slow bacterial growth to promote biofilm formation due to limited nutrients. The plate was incubated for 18 h at 37° C. with rotation at 150 rpm. Sterile media and DMSO were used as controls. Following incubation, the MICs of peptides in challenge plate were recorded. The pegs were transferred to new 96-well plate containing PBS and sonicated for 30 minutes to disrupt the biofilm. The sonicated suspensions were then ten-fold serially diluted and plated on LB agar plates to enumerate the biofilm protected bacteria and determine the minimum biofilm eradication concentration (MBEC) of peptides. Three independent experiments were conducted to ensure accuracy.

[4] = test system: Biofilm embedded SE; test: MBEC Assay; format: cell-based, Salmonella enterica; settings: at MICs; untreated 6.77 ± 0.02
Procedure: as §1

[5] = test system: commensal bacteria; test: Peptide activity against commensal bacteria; format: cell-based; settings: at MICs
Procedure: Peptide activity against commensal bacteria: Peptides 1, 2, and 4 were used to assess if they would inhibit commensal microbes. The commensal bacteria used along with their culture requirements are described in Table 25. Peptides at their MICs were added to 100 μL of known concentration of commensal bacteria and incubated under their required conditions. OD600 of cultures was measured to assess the effect of peptides on bacterial growth.

| Substance | MIC [1] [mM] | MIC50 [1] [mM] | Reduction of percent of birds positive for ST in the liver [2] [%] | Biofilm embedded ST [3] [Log CFU/ml] | Biofilm embedded SE [4] [Log CFU/mL] | Growth of Bacteroides thetaiotaomicron [5] | Growth of E. coli Nissle 1917 and E. coli G58-1 [5] | Growth of Gram-positive commensal bacteria [5] | MIC ([1]; 100% APEC growth inhibition) [mM] | Reduction of ST colonization in the cecum ([2]; 50 mg/kg twice daily 7 days, day 10 (7 dpi)) [logs] |
| --- | --- | --- | --- | --- | --- | --- | --- | --- | --- | --- |
| MLNERVK [Peptide P4, MLNERVK] | > 18 | 20.0 | 30 | 0.00 ± 0.00 | 0.00 ± 0.00 | no inhibition | inhibited | No growth inhibition | – | – |
| PDENK [Peptide P2, PDENK] | – | 9.5 | 30 | 0.00 ± 0.00 | 0.00 ± 0.00 | no inhibition | inhibited | No growth inhibition | 12 | 1.8 |
